Data: patent US20240360087A1, “THERMODYNAMICALLY STABLE FORM OF SCO-101” (SCANDION ONCOLOGY A/S, priority 2021, published 2024)
“Also recorded” adds a separate entry of the source.

Tests used:
Format in all cases: physicochemical
[1] = Dynamic vapour sorption (DVS), hygroscopicity; conditions: for mass gain at 90% relative humidity (DVS): 25° C.; for hygroscopicity (DVS), in words: RH up to 90%
Protocol: Approximately 10-20 mg of sample was placed into a mesh vapour sorption balance pan and loaded into a DVS Intrinsic or Advantage dynamic vapour sorption balance by Surface Measurement Systems. The sample was subjected to a ramping profile from 40-90% relative humidity (RH) at 10% increments, maintaining the sample at each step until a stable weight had been achieved (dm/dt 0.004%, minimum step length 30 minutes, maximum step length 120 minutes) at 25° C. After completion of the sorption cycle, the sample was dried using the same procedure to 0% RH and then a second sorption cycle back to 40% RH. Two cycles were performed. The weight change during the sorption/desorption cycles were plotted, allowing for the hygroscopic nature of the sample to be determined. XRPD analysis was then carried out on any solid retained.

[2] = Competitive slurry experiments (thermodynamic stability of solid forms); conditions: for thermodynamic stability of the solid form, in words: conclusion from competitive slurry experiments and thermal data; for Form/Pattern after slurrying for 3 days: 1:1 mixture with Form I, 40° C., XRPD
Protocol: The slurries were stirred at 40° C. for 3 days. After 3 days, the solids were filtered centrifugally and analysed by XRPD.

[3] = Variable temperature XRPD (VT-XRPD) of solid form conversion; conditions: mixture of Form III and Form IV at 150° C.
[4] = Storage at 40° C./75% RH in an open vial, XRPD; conditions: 3 days
Protocol: 200 mg SCO-101, Form III (Pattern 24) was placed at 40° C./75% RH in an open vial covered with tissue for 3 days.

[5] = saturated acetone:heptane (50:50% v/v)
[6] = saturated acetone:water (50:50% v/v)

SMILES	mass gain at 90% relative humidity (DVS) ([1]; 90% RH)	hygroscopicity (DVS), in words [1]	hygroscopicity (DVS), in words ([1]; listed as crystal form I)	thermodynamic stability of the solid form, in words [2]	water absorbed at 90% RH (DVS) ([1]; 90% RH)	weight gain when increasing RH from 70% to 80% (DVS) ([1]; RH 70% to 80%, corresponds to monohydrate) [%]	hygroscopicity (DVS), in words ([1]; listed as crystal form II)	Form/Pattern after slurrying for 3 days [2, 5]	Form/Pattern after slurrying for 3 days [2, 6]	temperature of complete transformation into Form IV (VT-XRPD) [3] [°C]	solid form after storage (XRPD) [4]
O=C(Nc1cc(C(F)(F)F)cc(C(F)(F)F)c1)Nc1ccc(Br)cc1-c1nnn[nH]1 [Form I, N-[4-Bromo-2-(1H-1,2,3,4-tetrazol-5-yl)phenyl]-N′-[3,5-bis(trifluoromethyl)phenyl]urea]	no increase in mass	non-hygroscopic	non-hygroscopic	thermodynamically most stable polymorph; also recorded: thermodynamically stable polymorph	–	–	–	–	–	–	–
O=C(Nc1cc(C(F)(F)F)cc(C(F)(F)F)c1)Nc1ccc(Br)cc1-c1nnn[nH]1 [Form II, N-[4-Bromo-2-(1H-1,2,3,4-tetrazol-5-yl)phenyl]-N′-[3,5-bis(trifluoromethyl)phenyl]urea]	approx 6%	takes up water to form a hydrate; also recorded: hygroscopic	–	metastable form	approx. 6 % (w/w)	3	hygroscopic	Form I	Form I	–	–
O=C(Nc1cc(C(F)(F)F)cc(C(F)(F)F)c1)Nc1ccc(Br)cc1-c1nnn[nH]1 [Form III, N-[4-Bromo-2-(1H-1,2,3,4-tetrazol-5-yl)phenyl]-N′-[3,5-bis(trifluoromethyl)phenyl]urea]	–	–	–	–	–	–	–	–	–	155	Form IV, Pattern 29
O=C(Nc1cc(C(F)(F)F)cc(C(F)(F)F)c1)Nc1ccc(Br)cc1-c1nnn[nH]1 [Pattern 5, N-[4-Bromo-2-(1H-1,2,3,4-tetrazol-5-yl)phenyl]-N′-[3,5-bis(trifluoromethyl)phenyl]urea]	–	–	–	–	–	–	–	Form I	Form I	–	–
